Where “and” joins values, the source holds several entries; their conditions need not be identical. Equal entries are not always repeated.
Tests used:
[1] = target: T1, ERBB2/ERBB4 (Homo sapiens, UniProt Q15303); assay: PathHunter U2OS ERBB2/ERBB4 dimerization assay; format: cell-based; settings: for ERBB4/ERBB2 dimerization signal: relative to signal with 0.1 µM NRG1, single biological replicates
T1 construct: host or cells: U2OS (osteosarcoma cells), PathHunter engineered line
Method: PathHunter U2OS ERBB4/ERBB4 (osteosarcoma cells; Eurofins, 93-0961C3), U2OS ERBB2/ERBB4 (osteosarcoma cells; Eurofins, 493-0960C3), ERBB2/ERBB3 (osteosarcoma cells; Eurofins, 93-1042C3) and ERBB1/ERBB1 (osteosarcoma cells; Eurofins, 93-0989C3) dimerization cell lines were cultured according to the manufacturer’s instructions. Briefly, cells were cultured in Cell Culture Reagent 103 (Eurofins, 92-3103 G) supplemented with 250 µg/mL Hygromycin B (Eurofins, 92-0029) and 500 µg/mL G418 (Eurofins, 92-0030), and were maintained at 37 °C in humidified atmosphere of 5% CO2. HCFs (Innoprot, P10454) were cultured in fibroblast medium (Innoprot, P60108) supplemented with 10% (v/v) fetal bovine serum (FBS, Innoprot), 10% (v/v) fibroblast growth supplement (Innoprot), and 1% (v/v) penicillin/streptomycin solution (Innoprot). iAMs[33] (kindly provided by LUMC) were cultured in Advanced DMEM F-12 (Thermo Fisher Scientific, 12634028) supplemented with 2% (v/v) heat-inactivated FBS (Thermo Fisher Scientific, 10270106), 1% (v/v) penicillin/streptomycin (10,000 units/mL and 10 mg/mL respectively, Thermo Fisher Scientific, 15140122), 1× GlutaMAX (Thermo Fisher Scientific, 35050061), and 100 ng/mL doxycycline (Tocris, 4090) for proliferation. To induce differentiation, iAMs were transferred to medium without doxycycline.
U2OS ERBB4/ERBB4 dimerization cells were seeded at a density of 5 × 10^4 cells/well in 100 µL Cell Plating 0 Reagent, in white 96-well plates (PerkinElmer, 6005680) and incubated for 24 h at 37 °C, 5% CO2. […] Next, 110 µL PathHunter Flash Detection Reagent was added to each well and incubated at RT for 1 h after which the luminescence signal was measured using the Luminoskan Ascent (Thermo Fisher Scientific). […] The same experimental set-up was used for the U2OS ERBB2/ERBB4, U2OS ERBB2/ERBB3 and U2OS ERBB1/ERBB1 dimerization cell lines.

[2] = tested on: Erbb4-null mice; assay: AngII-induced myocardial fibrosis in Erbb4-null mice, Masson's trichrome fibrosis; format: in vivo, mouse; set-up: Perivascular fibrosis: dose or concentration left out as unconfirmed
Method: Four weeks after implantation, cardiac ultrasound was performed, mice were euthanized, and hearts were collected. A similar set-up was used for the 1-week study (Alzet, model 1007D) in male mice (n = 9-10 mice in every group).
Floxed Erbb4 mice (Erbb4^f/f; C57BL/6N; 129-Erbb4tm1Fej/Mmucd, MMRRC, #010439-UCD) were crossed with CAGGCre-ER^TM mice (Jackson Laboratory, 004682) containing the Tg(CAG-cre/Esr1*)5Amc transgene that expresses Cre recombinase under the control of a chicken beta actin promoter/enhancer coupled to the human cytomegalovirus immediate-early gene enhancer, resulting in expression of tamoxifen-inducible Cre-ERT in most cell types. To induce Cre recombinase-mediated deletion of Erbb4, eleven-week-old female and male iCAGGCre-ER^TM/Erbb4^f/f mice were intraperitoneally injected with tamoxifen (Merck, T5648; 10 mg/kg; in corn oil) daily for 5 consecutive days.
Hearts were fixed in 4% PFA, paraffin-embedded, and cut into 5-µm sections. Images were acquired with an Olympus BX43 microscope (Olympus Stream Motion Software) or a CELENA® S Digital Imaging System and analyzed with ImageJ 2.14.0 software. Collagen distribution was visualized by Masson’s trichrome staining. Cardiac total fibrosis was expressed as the ratio of positively stained fibrotic area (blue) to the total area and perivascular fibrosis as the ratio of fibrotic area to vascular lumen area. Scar size was determined by measuring the scar length over the […]. Hypertrophy and vascularisation were visualized via an isolectin-B4/WGA/DAPI staining. Quantification was performed by a person blinded to the treatment protocol.

[3] = tested on: iAMs; assay: Cardiomyocyte hypertrophy assay: CSA of iAMs after AngII, also with PD98059; format: cell-based, rat
Method: iAMs were seeded at a density of 10^4 cells/well in differentiation medium in 24-well plates (Greiner Bio-One, 662160) and differentiated over 9 days (d0 = day of seeding). […] To determine CSA, cells were fixed with 4% paraformaldehyde (PFA, Thermo Fisher Scientific, 043368.9 M) for 30 min at 4 °C. Cells were washed thrice with PBS and permeabilized by incubation with 0.1% Triton X-100 (Merck, 10789704001) for 10 min at RT. iAMs were stained with Alexa Fluor 568 phalloidin (Thermo Fisher Scientific, A12380) in 1% BSA-PBS solution for 1 h at RT. After washing 3 times with PBS, DAPI (Merck, D9542) was added. Images were obtained by fluorescence microscopy (Celena S).
CSA was quantified using an automated algorithm, custom-made in Python[67]. The mode mD (maximum of the histogram) of DAPI intensities (excluding 0) was determined and binary segmentation of nuclei was created with threshold mD + SDD (with SDD the SD of DAPI intensities). Distinct objects with an area less than 500 pixels and nuclei where the average overlapping iAM signal was less than mdA + 0.5 SDA (with mdA and SDA the median and SD of the Alexa Fluor 568 intensity, respectively) were removed. […]

T1 sequence (Q15303 26-1308): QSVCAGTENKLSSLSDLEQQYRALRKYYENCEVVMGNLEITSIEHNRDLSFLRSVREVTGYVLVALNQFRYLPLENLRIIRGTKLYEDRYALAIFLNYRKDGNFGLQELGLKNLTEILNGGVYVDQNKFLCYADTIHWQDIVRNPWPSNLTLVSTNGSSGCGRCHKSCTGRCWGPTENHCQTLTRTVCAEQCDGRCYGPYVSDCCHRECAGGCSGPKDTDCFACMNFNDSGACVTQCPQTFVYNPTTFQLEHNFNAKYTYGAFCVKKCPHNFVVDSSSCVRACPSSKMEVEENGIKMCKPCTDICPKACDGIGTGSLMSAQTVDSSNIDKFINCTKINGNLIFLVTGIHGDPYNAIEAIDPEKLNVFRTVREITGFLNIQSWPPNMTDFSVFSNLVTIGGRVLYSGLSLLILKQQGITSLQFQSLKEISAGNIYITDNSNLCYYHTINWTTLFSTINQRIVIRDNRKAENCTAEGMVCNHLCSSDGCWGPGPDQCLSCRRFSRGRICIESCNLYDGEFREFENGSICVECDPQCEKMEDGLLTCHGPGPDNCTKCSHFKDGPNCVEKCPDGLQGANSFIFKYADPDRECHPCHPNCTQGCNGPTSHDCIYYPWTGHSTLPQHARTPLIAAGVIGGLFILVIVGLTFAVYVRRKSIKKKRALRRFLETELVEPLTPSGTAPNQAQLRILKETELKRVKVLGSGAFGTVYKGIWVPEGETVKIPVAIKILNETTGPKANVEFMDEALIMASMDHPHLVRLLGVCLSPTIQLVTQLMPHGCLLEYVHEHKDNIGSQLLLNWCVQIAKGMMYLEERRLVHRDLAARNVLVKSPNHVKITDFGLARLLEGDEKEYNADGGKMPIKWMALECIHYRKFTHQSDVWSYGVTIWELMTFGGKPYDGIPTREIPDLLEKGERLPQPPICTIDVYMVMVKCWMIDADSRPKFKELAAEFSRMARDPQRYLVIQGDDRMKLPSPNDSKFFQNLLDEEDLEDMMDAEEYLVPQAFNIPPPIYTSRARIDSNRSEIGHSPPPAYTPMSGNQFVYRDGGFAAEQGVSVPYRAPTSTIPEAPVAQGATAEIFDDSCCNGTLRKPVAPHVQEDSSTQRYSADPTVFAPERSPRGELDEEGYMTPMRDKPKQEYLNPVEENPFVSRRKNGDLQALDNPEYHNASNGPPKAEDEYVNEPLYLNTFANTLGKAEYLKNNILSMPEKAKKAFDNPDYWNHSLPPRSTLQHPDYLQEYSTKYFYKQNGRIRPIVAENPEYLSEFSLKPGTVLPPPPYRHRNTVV
T1 sequence (P04626 23-1255 partner): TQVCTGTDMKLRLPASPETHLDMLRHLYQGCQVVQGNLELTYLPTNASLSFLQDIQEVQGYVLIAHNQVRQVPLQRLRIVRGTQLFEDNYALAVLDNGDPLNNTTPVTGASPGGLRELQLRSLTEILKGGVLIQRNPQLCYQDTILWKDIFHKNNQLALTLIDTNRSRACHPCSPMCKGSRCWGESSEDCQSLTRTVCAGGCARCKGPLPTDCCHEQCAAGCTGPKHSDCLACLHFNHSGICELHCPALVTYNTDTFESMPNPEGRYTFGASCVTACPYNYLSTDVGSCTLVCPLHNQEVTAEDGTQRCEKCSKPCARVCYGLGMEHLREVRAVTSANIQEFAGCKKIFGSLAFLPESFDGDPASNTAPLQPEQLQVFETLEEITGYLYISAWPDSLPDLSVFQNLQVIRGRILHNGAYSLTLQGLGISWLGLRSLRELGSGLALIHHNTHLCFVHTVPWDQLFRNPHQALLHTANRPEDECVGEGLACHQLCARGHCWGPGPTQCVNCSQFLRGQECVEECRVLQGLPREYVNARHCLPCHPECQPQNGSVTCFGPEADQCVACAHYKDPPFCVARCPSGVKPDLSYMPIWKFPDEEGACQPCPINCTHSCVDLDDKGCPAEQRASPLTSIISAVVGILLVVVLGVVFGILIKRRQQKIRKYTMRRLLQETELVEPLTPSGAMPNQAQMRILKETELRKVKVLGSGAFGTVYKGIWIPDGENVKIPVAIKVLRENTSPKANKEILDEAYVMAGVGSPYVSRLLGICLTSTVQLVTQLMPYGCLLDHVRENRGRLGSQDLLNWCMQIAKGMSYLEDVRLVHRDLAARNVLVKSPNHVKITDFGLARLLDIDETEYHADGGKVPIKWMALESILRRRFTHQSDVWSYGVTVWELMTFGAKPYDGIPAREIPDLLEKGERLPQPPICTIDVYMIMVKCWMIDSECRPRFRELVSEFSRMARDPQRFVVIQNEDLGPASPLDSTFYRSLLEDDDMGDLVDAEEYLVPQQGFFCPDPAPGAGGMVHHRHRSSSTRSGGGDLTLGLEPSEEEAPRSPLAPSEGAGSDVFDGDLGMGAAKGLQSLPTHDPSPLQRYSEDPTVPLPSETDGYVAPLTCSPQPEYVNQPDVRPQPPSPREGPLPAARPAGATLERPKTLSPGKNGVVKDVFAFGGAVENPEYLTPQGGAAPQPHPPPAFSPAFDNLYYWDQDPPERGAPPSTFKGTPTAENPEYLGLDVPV

SMILES: O=C(NC1CC1)C(Sc1nc2ccccc2c(=O)n1C1CCCC1)c1ccccc1 (stereo not drawn) [EF-1]
- EC50 [1]: > 32 µM
- ERBB4/ERBB2 dimerization signal ([1]; 3.125e-8 M): 0
- ERBB4/ERBB2 dimerization signal ([1]; 6.25e-8 M): 10.52 and 1.76 and 3.95 and -0.62 and 8.84 and 32.1 and -4.84 and 13.1
- ERBB4/ERBB2 dimerization signal ([1]; 1.25e-7 M): 11.16 and 1.7 and 0.22 and 2.37 and 10.84 and 42.31 and 0.8 and 15.8
- ERBB4/ERBB2 dimerization signal ([1]; 2.5e-7 M): 14.28 and 2.37 and -0.2 and 2.18 and 11.16 and 44.62 and 2.21 and 32.89
- ERBB4/ERBB2 dimerization signal ([1]; 5e-7 M): 15.8 and 3.34 and -0.84 and 2.5 and 14.03 and 46.76 and 10.28 and 38.19
- ERBB4/ERBB2 dimerization signal ([1]; 1e-6 M): 17.47 and 6.72 and 2.79 and 5.79 and 18.63 and 53.25 and 13.21 and 49.02
- ERBB4/ERBB2 dimerization signal ([1]; 2e-6 M): 23.23 and 10.36 and 6.17 and 10.55 and 22.36 and 58.49 and 25.9 and 62.1
- ERBB4/ERBB2 dimerization signal ([1]; 4e-6 M): 39.65 and 19.88 and 18.63 and 20.82 and 41.51 and 62.22 and 30.3 and 62.16
- ERBB4/ERBB2 dimerization signal ([1]; 8e-6 M): 43.57 and 23.14 and 20.33 and 27.19 and 40.97 and 69.15 and 32.21 and 63.74
- ERBB4/ERBB2 dimerization signal ([1]; 1.6e-5 M): 49.69 and 37.91 and 30.09 and 36.81 and 54.68 and 124.7 and 60.3 and 94.64
- ERBB4/ERBB2 dimerization signal ([1]; 3.2e-5 M): 99.26 and 72.09 and 64.59 and 71.61 and 99.65 and 139.93 and 119.85 and 114.61
- efficacy in ERBB2/ERBB4 dimerization assay at the highest concentration (in words) ([1]; highest concentration): like the natural ligand NRG1
- Total fibrosis ([2]; male+female Erbb4-null mice, AngII/EF-1, AngII 400 ng/kg/day, single animals): 3.25 and 2.45 and 2.12 and 2.92 and 4.07
- Perivascular fibrosis ([2]; male+female Erbb4-null mice, AngII/EF-1, single animals): 0.6515 and 1.352 and 0.6814 and 0.7388 and 1.066
- effect on AngII-induced interstitial or perivascular fibrosis in Erbb4-null mice (in words) ([2]; mouse, in vivo): did not significantly prevent interstitial or perivascular AngII-induced fibrosis
- anti-hypertrophic effect of EF-1 under ERK1/2 pathway inhibition (PD98059) (in words) [3]: blocked upon inhibition of the ERK1/2 pathway
- effect on AngII-induced increase in CSA (in words) ([3]; EF-1 4–32 µM): dose-dependently attenuated

Reference: paper PMC11724075, “Small-molecule-induced ERBB4 activation to treat heart failure” (Nature Communications, 2025)
